Experimental data reported in patent US6245817A, “NPY5 receptor antagonists and methods for using same” (Bayer Corporation, priority 1999, dated 2001).
Counter-ions that a name gives are not always drawn.

Key:
Rat NPY5 Receptor = target: T1, Rat NPY5 Receptor (Rattus norvegicus, UniProt Q63634); assay: Rat NPY5 Receptor Binding Assay; conditions: for IC50: [125I]PYY, read-out: rNPY5 IC50; for inhibition at 10 µM: values marked *, read-out: rNPY5 percent inhibition at 10 μM
T1 sequence (Q63634 1-445): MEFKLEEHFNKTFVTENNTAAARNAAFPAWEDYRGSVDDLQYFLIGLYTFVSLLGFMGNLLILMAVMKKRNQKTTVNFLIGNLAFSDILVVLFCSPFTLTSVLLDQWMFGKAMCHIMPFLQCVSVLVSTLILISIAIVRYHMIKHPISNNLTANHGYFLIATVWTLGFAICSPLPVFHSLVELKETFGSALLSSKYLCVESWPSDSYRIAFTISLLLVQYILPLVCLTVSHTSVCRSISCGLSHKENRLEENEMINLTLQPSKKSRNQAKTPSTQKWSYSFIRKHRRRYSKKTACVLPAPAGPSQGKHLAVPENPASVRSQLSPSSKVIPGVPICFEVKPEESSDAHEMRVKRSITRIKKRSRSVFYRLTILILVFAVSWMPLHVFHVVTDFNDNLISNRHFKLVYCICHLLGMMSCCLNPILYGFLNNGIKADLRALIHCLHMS

Human NPY2 receptor = target: T2, Human NPY2 receptor (Homo sapiens, UniProt P49146); assay: Human NPY2 Receptor Binding Assay; conditions: [125I]PYY; read-out: hPPY2 IC50
T2 sequence (P49146 1-381): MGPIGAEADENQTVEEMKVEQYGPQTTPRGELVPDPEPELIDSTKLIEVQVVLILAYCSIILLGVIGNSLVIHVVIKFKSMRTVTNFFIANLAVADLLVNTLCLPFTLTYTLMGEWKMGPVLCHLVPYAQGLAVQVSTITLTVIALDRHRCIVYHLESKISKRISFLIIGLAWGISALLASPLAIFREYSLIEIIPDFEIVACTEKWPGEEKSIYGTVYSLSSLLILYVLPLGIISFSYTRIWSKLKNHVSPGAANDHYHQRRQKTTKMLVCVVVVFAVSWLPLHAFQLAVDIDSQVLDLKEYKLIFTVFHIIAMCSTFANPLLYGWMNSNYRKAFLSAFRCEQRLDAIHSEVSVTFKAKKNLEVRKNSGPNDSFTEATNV

Human NPY4/PP1 receptor = Human NPY4/PP1 receptor (Homo sapiens, UniProt P50391); assay: Human NPY4/PP1 Receptor Binding Assay; conditions: [125I]human PP; read-out: hNPY4 IC50
Human NPY5 Receptor = target: T3, Human NPY5 Receptor (Homo sapiens, UniProt Q15761); assay: Human NPY5 Receptor Binding Assay; conditions: [125I]PYY; read-out: hNPY5 IC50
T3 sequence (Q15761 1-445): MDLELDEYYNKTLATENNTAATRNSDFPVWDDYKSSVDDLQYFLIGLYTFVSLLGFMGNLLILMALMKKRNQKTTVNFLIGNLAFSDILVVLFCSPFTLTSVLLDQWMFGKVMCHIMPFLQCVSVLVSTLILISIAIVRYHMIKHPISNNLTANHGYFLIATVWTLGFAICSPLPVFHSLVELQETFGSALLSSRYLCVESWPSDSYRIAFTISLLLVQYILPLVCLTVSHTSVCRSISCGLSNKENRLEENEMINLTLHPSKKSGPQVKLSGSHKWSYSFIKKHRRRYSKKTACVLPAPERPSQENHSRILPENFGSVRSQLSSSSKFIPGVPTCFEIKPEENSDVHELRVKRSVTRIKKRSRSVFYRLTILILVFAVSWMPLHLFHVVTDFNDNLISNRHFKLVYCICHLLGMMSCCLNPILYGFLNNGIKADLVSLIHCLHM

Human NPY1 Receptor = target: T4, Human NPY1 Receptor (Homo sapiens, UniProt P25929); assay: Human NPY1 Receptor Binding Assay; conditions: SK-N-MC cells, [125I]PYY; read-out: hNPY1 IC50
T4 sequence (P25929 1-384): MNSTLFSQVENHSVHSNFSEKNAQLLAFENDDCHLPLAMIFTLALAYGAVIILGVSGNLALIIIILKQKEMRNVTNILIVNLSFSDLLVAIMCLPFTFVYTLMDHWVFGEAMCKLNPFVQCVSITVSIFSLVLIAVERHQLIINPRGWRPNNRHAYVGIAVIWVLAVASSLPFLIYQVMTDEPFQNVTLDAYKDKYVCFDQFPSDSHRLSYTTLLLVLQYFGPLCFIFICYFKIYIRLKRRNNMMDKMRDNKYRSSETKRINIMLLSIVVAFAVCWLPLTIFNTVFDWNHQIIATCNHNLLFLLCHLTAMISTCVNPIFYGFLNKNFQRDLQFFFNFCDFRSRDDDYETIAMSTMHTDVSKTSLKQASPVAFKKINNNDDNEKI

Sequence of Human NPY4/PP1 receptor (P50391 whole entry): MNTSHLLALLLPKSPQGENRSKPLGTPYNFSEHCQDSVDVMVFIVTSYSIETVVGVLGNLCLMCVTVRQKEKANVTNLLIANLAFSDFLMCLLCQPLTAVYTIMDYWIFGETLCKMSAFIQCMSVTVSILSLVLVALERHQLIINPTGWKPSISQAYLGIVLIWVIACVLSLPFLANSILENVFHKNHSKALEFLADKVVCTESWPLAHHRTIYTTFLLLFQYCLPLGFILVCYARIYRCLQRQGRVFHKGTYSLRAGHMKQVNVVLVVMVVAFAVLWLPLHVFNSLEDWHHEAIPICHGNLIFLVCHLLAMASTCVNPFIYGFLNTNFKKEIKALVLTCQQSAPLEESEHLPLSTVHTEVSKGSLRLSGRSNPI

IC50 (Rat NPY5 Receptor) | IC50 (Human NPY2 receptor) | IC50 (Human NPY4/PP1 receptor) | IC50 (Human NPY5 Receptor) | inhibition at 10 µM (Rat NPY5 Receptor) | IC50 (Human NPY1 Receptor) | Compound
> 1 µM | > 5 µM | > 5 µM |  |  |  | Cc1ccnc(SCC(=O)Nc2ccc(C3CCCCC3)cc2)n1 [Compound 5, N-(4-Cyclohexyl-phenyl)-2-(4-methyl-pyrimidin-2-ylsultanyl)-acetamide Hydrochloride]
 | > 5 µM |  | 0.44 µM | 93% |  | Cn1ccnc1SCC(=O)Nc1ccc(C(=O)c2ccccc2)cc1 [Compound 9]
 | > 5 µM |  | 0.5 µM | 95% |  | O=C(CSc1nc2ccccc2[nH]1)Nc1ccc(C2CCCCC2)cc1 [Compound 11, 2-(1H-Benzoimidazol-2-ylsulfanyl)-N-(4-cyclohexyl-phenyl)-acetamide]
 | > 5 µM |  | 0.48 µM | 95% |  | O=C(CSc1nc2ccccc2[nH]1)Nc1ccc(C(=O)c2ccccc2)cc1 [Compound 12, 2-(1H-Benzoimidazol-2-ylsulfanyl)-N-(4-benzoyl-phenyl)-acetamide]
 | > 5 µM |  | 5.6 µM | 71% |  | Nc1nc(O)c2[nH]c(SCC(=O)Nc3ccc(C4CCCCC4)cc3)nc2n1 [Compound 13, 2-(2-Amino-hydroxy-9H-purin-8-ylsuIfanyl)-N-(4-yclohexyl-phenyl)-acetamide]
 | > 5 µM |  | > 10 µM | 51% |  | Nc1nc(O)c2[nH]c(SCC(=O)Nc3ccc(C(=O)c4ccccc4)cc3)nc2n1 [Compound 14, 2-(2-Amino-hydroxy-9H-purin-ylsulfanyl)-N-(4-benzoyl-phenyl)-acetamide]
 | > 5 µM |  | 9.8 µM | 66% |  | O=C(CSc1nc(-c2ccccc2)c(-c2ccccc2)[nH]1)Nc1ccc(C2CCCCC2)cc1 [Compound 15, N-(4-Cyclohexyl-phenyl)-2-(4,5-diphenyl-1H-imidazol-2-ylsulfanyl)-acetamide]
 | > 5 µM |  | 3.6 µM | 80% |  | O=C(CSc1nc(-c2ccccc2)c(-c2ccccc2)[nH]1)Nc1ccc(C(=O)c2ccccc2)cc1 [Compound 16, N-(4-Benzoyl-phenyl)-2-(4,5-diphenyl-1H-imidazol-2-ylsulfanyl)-acetamide]
 | > 5 µM |  | 2.7 µM |  |  | CC(=O)Nc1ccc(SCC(=O)Nc2ccc(C(=O)c3ccccc3)cc2)cc1 [Compound 64, 2-(-Acetylamino-phenylsulfanyl)-N-(4-benzoyl-phenyl)-acetamide]
 | > 5 µM |  | 0.97 µM |  |  | O=C(CSc1ccc(O)cc1)Nc1ccc(C(=O)c2ccccc2)cc1 [Compound 65]
 | > 5 µM |  | 1.7 µM |  |  | O=C(CSc1nc[nH]n1)Nc1ccc(C(=O)c2ccccc2)cc1 [Compound 66, N-(4-Benzoyl-phenyl)-2-(1H-[1,2,4]triazol-3-ylsulfanyl)-acetamide]
 | > 5 µM |  | 7.6 µM |  |  | Nc1n[nH]c(SCC(=O)Nc2ccc(C(=O)c3ccccc3)cc2)n1 [Compound 67, 2-(5-Amino-2H-[1,2,4]triazol-3-ylsulfanyl)-N-(4-benzoyl-phenyl)-acetamide]
 | > 5 µM |  | 5 µM |  |  | Nc1nc(SCC(=O)Nc2ccc(C(=O)c3ccccc3)cc2)c2[nH]cnc2n1 [Compound 68, 2-(2-Amino-7H-purin-ylsulfanyl)-N-(4 benzoyl-phenyl)-acetamide]
 | > 5 µM |  | 6.8 µM |  |  | Nc1nc(SCC(=O)Nc2ccc(C(=O)c3ccccc3)cc2)nc2[nH]ncc12 [Compound 69, 2-(4-Amino-1H-pyrazolo[3,4-d]pyrimidin-6-ylsulfanyl)-N-(4-benzoyl-phenyl)-acetamide]
 | > 5 µM |  | > 10 µM |  |  | Nc1nc(SCC(=O)Nc2ccc(C(=O)c3ccccc3)cc2)nc(O)c1N=O [Compound 70, 2-(4-Amino-hydroxy-nitroso-pyrimidin-2-ylsulfanyl)-N-(4-benzoyl-phenyl)-acetamide]
 | > 5 µM |  | 1.3 µM |  |  | O=C(CSc1nc2cc(Cl)ccc2s1)Nc1ccc(C(=O)c2ccccc2)cc1 [Compound 71, N-(4-Benzoyl-phenyl)-2-(5-chloro-benzothiazol-2-ylsulfanyl)-acetamide]
 | > 5 µM |  | 8.4 µM |  |  | Cc1cc(C)nc(SCC(=O)Nc2ccc(C(=O)c3ccccc3)cc2)n1 [Compound 72, N-(4-Benzoyl-yl)-2-(4,6-dimethyl-pyrimidin-2-ylsulfanyl)-acetamide]
 | > 5 µM |  | 0.11 µM | 95% |  | O=C(CSc1ncc[nH]1)Nc1ccc(C2CCCCC2)cc1 [Compound 136, N-(4-Cyclohexyl-phenyl)-2-(1H-imidazol-2-ylsulfanyl)-acetamide]
> 10 µM |  | > 5 µM | > 10 µM |  | > 5 µM | Cc1cc(-c2nnc(SCC(=O)Nc3ccccc3)n2C)no1 [Compound 150, 2-[4-Methyl-5-(5-methyl-isoxazol-3-yl)-4H-[1,2,4]triazol-3-ylsulfanyl]-N-phenyl-acetamide, reference compound]
> 10 µM |  | > 5 µM | > 10 µM |  | > 5 µM | CC(C)c1ccc(NC(=O)CSc2nnc(CSc3cccs3)n2C)cc1 [Compound 153, reference compound]
 | > 5 µM | > 5 µM | > 10 µM |  |  | Cc1cc(-c2nc(C)c(-c3nnc(SCC(=O)Nc4ccc(C(C)C)cc4)n3C)s2)no1 [Compound 177, N-(4-isopropyl-phenyl)-2-(4-methyl-5-[4-methyl-2-(5-methyl-isoxazol-3-yl)-thiazol-5-yl]-4H-[1,2,4]-triazol-3-ylsulfanyl]-acetamide, reference compound]
 | > 5 µM | > 5 µM | > 10 µM |  |  | CCCCCCCCCCCc1nnc(SCC(=O)Nc2ccc(Cl)cc2)n1-c1ccccc1C(F)(F)F [Compound 178, N-(A-Chloro-phenyl)-2-[4-(2-trifluoromethyl-phenyl)-5-undecyl-4H-[1,2,4]triazol-3-ylsulfanyl]-acetamide, reference compound]
 | > 5 µM | > 5 µM | > 10 µM |  |  | CCCCCCCCCCCc1nnc(SCC(=O)Nc2ccc(C(C)C)cc2)n1-c1ccccc1C(F)(F)F [Compound 179, reference compound]
 | > 5 µM | > 5 µM | > 10 µM |  |  | CC(C)n1c(SCC(=O)Nc2ccc(Cl)cc2)nc2cc(C(F)(F)F)ccc21 [Compound 180, N-(4-Chloro-phenyl]-2-(1-isopropyl-5-trifluoromethy-1H-benzolmidazol-2-ylsulfanyl)-acetamide, reference compound]
 | > 5 µM | > 5 µM | > 10 µM |  |  | CCCCCn1c(O)nnc1SCC(=O)Nc1ccc(Cl)cc1 [Compound 181, N-(4-Chloro-phenyl)-2-(5-hydroxy-4-pentyl-4H-[1,2,4]triazo-3-ylsulfanyl)-acetamide, reference compound]
1.2 µM | > 5 µM | > 5 µM | 1.3 µM |  |  | Cc1ccc(SCC(=O)Nc2ccc(C3CCCCC3)cc2)cc1 [Compound 183, reference compound]
